Patent US10485845B2, “Neuronal pain pathway” (THE TRUSTEES OF COLUMBIA UNIVERSITY IN THE CITY OF NEW YORK, priority 2005, dated 2019)
“Also recorded” adds a separate entry of the source.

What was measured:
PKG [1] = settings: see Setyawan et al., 1999; read-out: inhibitory of PKG at concentration of; cited from earlier work
PKG [2] = test: Blocking of PKG activity at the site of sciatic nerve injury in rat; format: in vivo; settings: nerve injured in presence of inhibitor; four hours after injury
Method: FIG. 9. Relative PKG activity at various positions of the sciatic nerve relative to point of injury, shown schematically above the graph.
The experiment was carried out as follows. A rat was anesthetized using a standard protocol and the sciatic nerve was exposed and injured in either the absence or the presence of RP-G, or an inhibitor of PKA, Rp-8-pCPT-cAMPS, (“RP-A”). Four hours later, the nerve was sectioned as shown in the schematic above the graph in FIG. 9, and each segment was assayed for PKG activity. In the absence of inhibitor (black bars), active PKG had been transported toward the cell bodies and was enriched in P3.

Aplysia SNs [3] = test: Induction of LTH in axotomized SNs in vitro (electrophysiology); format: cell-based, Aplysia californica; settings: inhibitor added to 2-d-cultured SN
Aplysia SNs [4] = test: as above; format: cell-based, Aplysia californica; settings: for decrease in spike threshold / increase in repetitive firing: 10 μM, SNs grown in presence of inhibitor, third day in vitro
Method: FIG. 6A-D. Inhibiting NOS, sGC, or apPKG prevents the induction of LTH in SNs in vitro. SNs were removed from the cluster and grown in vitro in the presence of Rp-8-pCPT-cGMPS (RpcGMPS), Rp-8-pCPT-cAMPS (RpcAMPS), or ODQ (all 10 μM). Other SNs removed at the same time were not exposed to any inhibitors as controls (C). A, B, On the third day in vitro, 12 SNs exposed to Rp-cGMPS, Rp-cAMPS, or ODQ, and 12 control SNs were impaled with a microelectrode to assess repetitive firing in response to stimulation at three test currents (A) and to determine spike threshold (B). We examined the cells on the third day, and not later, to avoid more prolonged exposure to the drugs. […] Error bars indicate SEM, and the asterisks indicate significance (p<0.0001 in each case). […] C, Detection of nNOS mRNA in single SNs by RT-PCR. Fragments of appropriate lengths were amplified with primer sets for apnNOS, sensorin A, and the neuron-specific isoform of actin from five separate sets of samples from SNs in vivo (0) or after 16 hr in vitro. The size of the synthesized fragments detected by ethidium bromide staining on 2% agarose gels were identical with those predicted from the known sequences in the database. In addition, the PCR products were verified by DNA sequence analysis. Finally, there was no amplification in the absence of reverse transcriptase, indicating the RNA preparations were not contaminated by genomic DNA (bottom panel). Positions of molecular markers are indicated on the left. D, Effects of the NOS inhibitors on LTH. L-Thiocitrulline (50 μM) and L-NAME (1 mM) were used as described above. n, Number of SNs. The data were normalized to the average excitability of control cells in the same preparation. The asterisk indicates significance (p<0.001), comparing LTH with and without inhibitor by ANOVA and Dunnett's test. Error bars indicate SEM.
Medium was changed every 2 d. Drugs were washed out 1 hr before electrophysiological tests.
Before the start of each recording, the hemolymph was replaced with a 1:1 mixture of artificial seawater and culture medium (without hemolymph; pH 7.6). Standard techniques were used for intracellular stimulation and recording (Ambron et al., 1996). The soma spike threshold was measured with a standard series of 20 msec depolarizing pulses. Repetitive firing was quantified by counting the number of spikes evoked by a series of 2 sec depolarizing pulses at 1, 2, 3, 4, and 5 nA, or 1 sec depolarizing pulses at 2.5 times the current for the 20 msec threshold. Spike amplitude was measured from baseline to the peak of the action potential, and spike duration was the breadth of the action potential at one-half of its maximal height.
To investigate whether the appearance of the LTH requires apPKG activity, the SNs were removed from the ganglion in the presence of either the soluble guanylyl cyclase (sGC) inhibitor ODQ, the PKG inhibitor Rp-8-pCPT-cGMPS, or the PKA inhibitor Rp-cAMPS. The latter was used because PKA has properties in common with PKG (Scott, 1991; Francis and Corbin, 1994) and has been implicated in various forms of synaptic plasticity in Aplysia SNs (Ghirardi et al., 1992; Byrne and Kandel, 1996; Bedi et al., 1998; Muller and Carew, 1998; Chain et al., 1999; Liao et al., 1999; Sutton and Carew, 2000; Antonov et al., 2003). The cells were subsequently allowed to regenerate in the presence of the inhibitors in vitro, and on the third day, their electrophysiological properties were compared with those of SNs that were removed from the same ganglia at the same time, but that had not been exposed to a drug. […] Neither spike broadening nor amplitude were evaluated in these experiments.

apPKG = test: In vitro kinase assay of recombinant apPKG (32P transfer from ATP to BPDEtide); format: biochemical, Aplysia; settings: 100 nM 8-Br-cGMP, BPDEtide substrate
Method: FIG. 2A-C. apPKG is a type-1 PKG. […] Activity caused by autophosphorylation was subtracted using a peptide control reaction (see Materials and Methods). Note that the kinase activity was inhibited in the presence of 10 μM PKG inhibitor Rp-8-pCPT-cGMPS (RP-G). B, Kinase activity of active recombinant apPKG (25 ng) and bovine PKG type-Iα (bPKG Iα (50 ng) in the presence of four type-I PKG peptide substrates: peptide A, RKISASGP (SEQ ID NO:21); B, RKISASEFDRPLR (SEQ ID NO:22; BPDEtide); and D, RKRSRAE (SEQ ID NO:23) H2Btide). Peptide C, QKRPRRKDTP (SEQ ID NO:24), is a type-II PKG substrate. C, apPKG phosphorylates recombinant VASP at serine-239. Purified recombinant VASP-GST (0.5 μg) was incubated with active apPKG (100 ng) or the recombinant bovine PKG (50 ng), or in the kinase buffer alone, at room temperature for 20 min. After SDS-PAGE, a Western blot was probed with an anti-phospho-VASP (Ser 239) (p-VASP 5239) antibody.
These studies establish apPKG as a member of the soluble type-I family of PKGs.

apMAPK [5] = system: apMAPK
Method: Top, Left, Twenty-five micrograms of a pleural ganglia lysate collected at the indicated times after p5-p9 nerve crush were resolved by SDS-PAGE, and a Western blot was probed with Ab pTpYmapk to detect active ERK-MAPKs. […] All of the values were normalized to levels of total apMAPK. […] Each of the following experiments (B-E) was repeated twice at least, and representative results are shown. […] Left, Pleural neurons were removed from a noninjured animal, a lysate was prepared, and 25 μg was incubated with 100 ng of active apPKG protein or with 1 μM 8-Br-cGMP in the presence or absence of 10 μM U0126. Right, Twenty-five micrograms of axoplasm was incubated with active apPKG as above. Active apMAPK was detected by immunoblotting with Ab pTpYmapk.
ERK activity was assayed as described (Sung et al., 2001). Briefly, proteins and 500 μM ATP were incubated in kinase buffer for 20 min at room temperature. The reaction mixtures were resolved on 10% SDS polyacrylamide gels and subjected to Western blotting with antibody (Ab)pTpYmapk, AbpYmapk, AbpTmapk, or AbpElk1.

apMAPK [6] = test: Axotomy-induced apMAPK nuclear translocation in SNs (D8 antibody immunostaining, confocal microscopy); format: cell-based, Aplysia; settings: 10 μM, SNs in vitro; for nuclear staining of apMAPK: fixed on the third day
Method: Equal amounts of Alexa Fluor 546-labeled BSA, apPKG, or ERK1 were microinjected into the cytoplasm of SNs after 2 d in vitro. The neurites were then severed with a fine needle to elicit an injury response, and 30 min later, the cells were examined by confocal microscopy. […] Scale bar, 20 μm. B, Rp-8-pCPT-cGMPs inhibits axotomy-induced apMAPK nuclear translocation. SNs untreated as controls, and those exposed to either 10 μM Rp-8-pCPT-cGMPs (Rp-cGMPs) or Rp-cAMPs for 2 d in vitro, were immunostained with D8 antibody to localize apMAPK. Top, Representative examples of 2 μm optical sections of control SNs and those exposed to Rp-8-pCPT-cGMPs or Rp-cAMPs. Scale bar, 20 μm. Bottom, Histogram of the mean value of nuclear MAPK immunoreactivity. The staining intensity was determined by a person who was blind to the treatment that the cells received. n, Number of cells for each treatment. Asterisk indicates significant difference from control (p<0.05 by ANOVA and Newman-Keuls tests).
Ganglia, nerve, or cultured cells were fixed with 4% paraformaldehyde in PBS, pH 7.4. The primary antibody was diluted in TBS supplemented with 0.1-0.5% Triton X-100 in TBS and 5% goat serum, and incubated overnight at 4° C. After several washes, an Alexa Fluor 594- or 488-conjugated secondary antibody (Molecular Probes, Eugene, Oreg.) was applied for 1 hr at room temperature. Subsequently, the cells were visualized by confocal fluorescence microscopy (LSM510 confocalmicroscope; Zeiss, Oberkochen, Germany), and images were collected.
The inability of apPKG to enter the nucleus of Aplysia SNs is consistent with the idea that it contributes to the induction of LTH by promoting the nuclear import of apMAPK. If so, then inhibiting the apPKG pathway should block the axotomy-induced entry of apMAPK into the nucleus. Therefore, SNs were exposed in vitro either to the PKG blocker, Rp-8-pCPTcGMPS, or the PKA blocker, Rp-cAMPS, under the conditions that induce LTH (FIG. 6A). On the third day, the cells were fixed, permeabilized, and exposed to antibody D8 to visualize ap-MAPK. […]

Aplysia SNs [7] = settings: SNs exposed to drug in vitro
Method: SNs were isolated from the pleural ganglia of 50-80 gm animals and were plated on poly-L-lysine-coated dishes containing L15 medium and 50% hemolymph (Dagan and Levitan, 1981; Glanzman etal., 1989). Cultures were maintained at 18° C. for up to 7 d. Medium was changed every 2 d. Drugs were washed out 1 hr before electrophysiological tests.

rats = settings: intrathecal, 10 and 60 minutes later; cited from earlier work

Compound: 14″ decarboxy balanol
- IC50 (PKG [1]): 19 nM

Compound: Nc1ncnc2c1nc(Sc1ccc(Cl)cc1)n2C1OC2COP(O)(=S)OC2C1O (stereo not drawn) [RP-A, Rp-8-pCPT-cAMPS]
- PKG activity in sciatic nerve segments (PKG [2]): did not change this pattern

Compound: 10″ deoxybalanol
- IC50 (PKG [1]): 31 nM

Compound: balanol-7R
- IC50 (PKG [1]): 291 nM

Compound: O=c1onc2cnc3ccccc3n12 [ODQ, 1-H[1,2,4]oxadiazolo[4,3-a]quinoxalin-1-one]
- appearance of excitability (Aplysia SNs [3]): Neither Rp-8-pCPT-cGMPS nor ODQ inhibited
- decrease in spike threshold (Aplysia SNs [4]): significantly prevented
- increase in repetitive firing (Aplysia SNs [4]): prevented; also recorded: significantly reduced

Compound: Nc1nc2c(nc(Br)n2[C@@H]2O[C@@H]3COP(=O)(O)O[C@H]3[C@H]2O)c(=O)[nH]1 [8-Br-cGMP]
- activation of inactive apPKG (apPKG): activated
- level of active apMAPK (apMAPK [5]; 1 μM 8-Br-cGMP added to 25 μg lysate): markedly enhanced

Compound: Nc1nc2c(nc(Sc3ccc(Cl)cc3)n2C2OC3COP(O)(=S)OC3C2O)c(=O)[nH]1 (single isomer, unassigned) [Rp-8-pCPT-cGMPS, guanosine 3′,5′-cyclic monophosphorothioate, 8-(4-chlorophenylthio)-, Rp isomer]
- kinase activity of purified inactive recombinant apPKG (apPKG; 10 μM inhibitor): inhibited
- appearance of excitability (Aplysia SNs [3]): Neither Rp-8-pCPT-cGMPS nor ODQ inhibited
- decrease in spike threshold (Aplysia SNs [4]): prevented
- increase in repetitive firing (Aplysia SNs [4]): prevented
- decrease in spike threshold (Aplysia SNs [4]; listed as Rp-cGMPS): significantly prevented
- increase in repetitive firing (Aplysia SNs [4]; listed as Rp-cGMPS): significantly reduced
- PKG activity in sciatic nerve segments (PKG [2]): abolished the activity
- reduction in the level of apMAPK in the nucleus of the SNs (apMAPK [6]): nearly threefold reduction
- nuclear staining of apMAPK (apMAPK [6]): dramatic reduction

Compound: NC(=S)NCCC[C@H](N)C(=O)O [L-Thiocitrulline, L-thiocitrulline]
- maximum firing relative to untreated controls (LTH) (Aplysia SNs [4]; 50 μM, SNs in vitro): markedly reduced

Compound: COC(=O)[C@@H](N)CCCN=C(N)N[N+](=O)[O-].Cl [L-NAME, N^G-nitro-L-arginine methyl ester hydochioride]
- LTH (maximum firing relative to untreated controls) (Aplysia SNs [4]; 1 mM, SNs in vitro): reduced LTH

Compound: Nc1ncnc2c1ncn2[C@@H]1O[C@@H]2COP(O)(=S)O[C@H]2[C@H]1O (single isomer, unassigned) [Rp-cAMPS, adenosine 3′,5′-cyclic monophosphorothioate, Rp isomer]
- decrease in spike threshold (Aplysia SNs [4]): no significant effect; also recorded: not significant
- increase in repetitive firing (Aplysia SNs [4]): no significant effect
- nuclear staining of apMAPK (apMAPK [6]): same levels

Compound: O=C(NC1CNCCCC1OC(=O)c1cc(O)c(C(=O)c2c(O)cccc2C(=O)O)c(O)c1)c1ccc(O)cc1 (stereo not drawn) [balanol]
- IC50 (PKG [1]): 1.6 nM

Compound: N#CC(=C(/N)Sc1ccccc1N)/C(C#N)=C(\N)Sc1ccccc1N [U0126]
- block of apMAPK activation by active apPKG or 8-Br-cGMP (apMAPK [5]; 10 μM U0126): not blocked
- extent or pattern of neurite growth (Aplysia SNs [7]): severe growth defects

Compound: CCN(CC)CC.Nc1nc2c(nc(Sc3ccc(Cl)cc3)n2[C@@H]2O[C@@H]3COP(O)(=S)O[C@H]3[C@H]2O)c(=O)[nH]1 (stereo partly drawn) [Rp-8-[4-chlorophenyl)thio-cGMPS triethylamine]
- antinociception (rats): significant antinociception
